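Exposure lasted 48 hours, with cells grown in 96-well plates and compounds tested at five concentrations. GI50: concentration for 50% inhibition of growth.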 Active and inactive are the calls of the source. Rule as the data show it: active = GI50 up to about 1.1 µM and inactive = higher.
Assays:
Assay in all cases: inhibition of tumour cell growth, NCI panel, 48 h
HT-29 = tested on: HT-29
UO-31 = tested on: UO-31
HOP-62 = tested on: HOP-62
OVCAR-8 = tested on: OVCAR-8
SK-MEL-28 = tested on: SK-MEL-28
UACC-62 = tested on: UACC-62
SNB-78 = tested on: SNB-78
LXFL 529 = tested on: LXFL 529
NCI-H226 = tested on: NCI-H226
MOLT-4 = tested on: MOLT-4
ACHN = tested on: ACHN
UACC-257 = tested on: UACC-257
RPMI-8226 = tested on: RPMI-8226
SF-295 = tested on: SF-295
XF498 = tested on: XF498
Malme-3M = tested on: Malme-3M
LOX IMVI = tested on: LOX IMVI
DMS-114 = tested on: DMS-114
SNB-75 = tested on: SNB-75
COLO 205 = tested on: COLO 205
M14 = tested on: M14
OVCAR-3 = tested on: OVCAR-3
M19-MEL = tested on: M19-MEL
DLD-1 = tested on: DLD-1
K562 = tested on: K562
NCI-H460 = tested on: NCI-H460
A549 = tested on: A549
HOP-92 = tested on: HOP-92
HL-60 = tested on: HL-60
SF-539 = tested on: SF-539
TK-10 = tested on: TK-10
DMS-273 = tested on: DMS-273
SK-OV-3 = tested on: SK-OV-3
EKVX = tested on: EKVX
HCT-116 = tested on: HCT-116
SR = tested on: SR
CCRF-CEM = tested on: CCRF-CEM
SF-268 = tested on: SF-268
NCI-H23 = tested on: NCI-H23
KM-20L2 = tested on: KM-20L2
SK-MEL-2 = tested on: SK-MEL-2
SNB-19 = tested on: SNB-19
RXF 393 = tested on: RXF 393
U-251 = tested on: U-251
IGROV-1 = tested on: IGROV-1
NCI-H522 = tested on: NCI-H522
KM12 = tested on: KM12
SN12C = tested on: SN12C
HCC 2998 = tested on: HCC 2998
786-0 = tested on: 786-0
SW-620 = tested on: SW-620
OVCAR-4 = tested on: OVCAR-4
A498 = tested on: A498
HOP-18 = tested on: HOP-18
HCT-15 = tested on: HCT-15
CAKI-1 = tested on: CAKI-1
OVCAR-5 = tested on: OVCAR-5
SK-MEL-5 = tested on: SK-MEL-5

SMILES: Cc1ccc(/C=N\NC2c3cc(Cl)ccc3Nc3nc(O)nc(C)c32)cc1 (stereo unspecified)
- GI50 (HT-29): > 100 µM (inactive)
- GI50 (UO-31): > 100 µM (inactive)
- GI50 (HOP-62): > 100 µM (inactive)
- GI50 (OVCAR-8): 72.6 µM (inactive)
- GI50 (SK-MEL-28): > 100 µM (inactive)
- GI50 (UACC-62): > 100 µM (inactive)
- GI50 (SNB-78): > 100 µM (inactive)
- GI50 (LXFL 529): > 100 µM (inactive)
- GI50 (NCI-H226): > 100 µM (inactive)
- GI50 (MOLT-4): 4.92 µM (inactive)
- GI50 (ACHN): > 100 µM (inactive)
- GI50 (UACC-257): 88.9 µM (inactive)
- GI50 (RPMI-8226): 45 µM (inactive)
- GI50 (SF-295): > 100 µM (inactive)
- GI50 (XF498): > 100 µM (inactive)
- GI50 (Malme-3M): > 100 µM (inactive)
- GI50 (LOX IMVI): > 100 µM (inactive)
- GI50 (DMS-114): > 100 µM (inactive)
- GI50 (SNB-75): > 100 µM (inactive)
- GI50 (COLO 205): 58.1 µM (inactive)
- GI50 (M14): 57.1 µM (inactive)
- GI50 (OVCAR-3): > 100 µM (inactive)
- GI50 (M19-MEL): > 100 µM (inactive)
- GI50 (DLD-1): > 100 µM (inactive)
- GI50 (K562): 56.5 µM (inactive)
- GI50 (NCI-H460): > 100 µM (inactive)
- GI50 (A549): > 100 µM (inactive)
- GI50 (HOP-92): 43.3 µM (inactive)
- GI50 (HL-60): 43.3 µM (inactive)
- GI50 (SF-539): > 100 µM (inactive)
- GI50 (TK-10): > 100 µM (inactive)
- GI50 (DMS-273): 91.4 µM (inactive)
- GI50 (SK-OV-3): > 100 µM (inactive)
- GI50 (EKVX): > 100 µM (inactive)
- GI50 (HCT-116): 46.8 µM (inactive)
- GI50 (SR): 7.29 µM (inactive)
- GI50 (CCRF-CEM): 96.6 µM (inactive)
- GI50 (SF-268): > 100 µM (inactive)
- GI50 (NCI-H23): > 100 µM (inactive)
- GI50 (KM-20L2): > 100 µM (inactive)
- GI50 (SK-MEL-2): > 100 µM (inactive)
- GI50 (SNB-19): > 100 µM (inactive)
- GI50 (RXF 393): > 100 µM (inactive)
- GI50 (U-251): > 100 µM (inactive)
- GI50 (IGROV-1): 84.3 µM (inactive)
- GI50 (NCI-H522): > 100 µM (inactive)
- GI50 (KM12): > 100 µM (inactive)
- GI50 (SN12C): 65.3 µM (inactive)
- GI50 (HCC 2998): 95.7 µM (inactive)
- GI50 (786-0): > 100 µM (inactive)
- GI50 (SW-620): 67.8 µM (inactive)

SMILES: COC(=O)C(=O)C(CC(=O)Nc1cc(Cl)ccc1Cl)C(=O)OC (stereo unspecified)
- GI50 (HT-29): > 100 µM (inactive)
- GI50 (UO-31): > 100 µM (inactive)
- GI50 (HOP-62): > 100 µM (inactive)
- GI50 (OVCAR-4): > 100 µM (inactive)
- GI50 (OVCAR-8): > 100 µM (inactive)
- GI50 (SK-MEL-28): > 100 µM (inactive)
- GI50 (A498): > 100 µM (inactive)
- GI50 (UACC-62): > 100 µM (inactive)
- GI50 (SNB-78): > 100 µM (inactive)
- GI50 (LXFL 529): > 100 µM (inactive)
- GI50 (HOP-18): > 100 µM (inactive)
- GI50 (NCI-H226): > 100 µM (inactive)
- GI50 (MOLT-4): > 100 µM (inactive)
- GI50 (ACHN): > 100 µM (inactive)
- GI50 (UACC-257): > 100 µM (inactive)
- GI50 (RPMI-8226): > 100 µM (inactive)
- GI50 (SF-295): > 100 µM (inactive)
- GI50 (Malme-3M): > 100 µM (inactive)
- GI50 (HCT-15): > 100 µM
- GI50 (LOX IMVI): > 100 µM (inactive)
- GI50 (DMS-114): > 100 µM (inactive)
- GI50 (SNB-75): > 100 µM (inactive)
- GI50 (COLO 205): > 100 µM (inactive)
- GI50 (M14): > 100 µM (inactive)
- GI50 (OVCAR-3): > 100 µM (inactive)
- GI50 (K562): > 100 µM (inactive)
- GI50 (NCI-H460): > 100 µM (inactive)
- GI50 (A549): > 100 µM (inactive)
- GI50 (CAKI-1): > 100 µM (inactive)
- GI50 (HOP-92): > 100 µM (inactive)
- GI50 (HL-60): > 100 µM (inactive)
- GI50 (SF-539): > 100 µM (inactive)
- GI50 (TK-10): > 100 µM (inactive)
- GI50 (DMS-273): > 100 µM (inactive)
- GI50 (SK-OV-3): > 100 µM (inactive)
- GI50 (EKVX): > 100 µM (inactive)
- GI50 (HCT-116): > 100 µM (inactive)
- GI50 (SR): > 100 µM (inactive)
- GI50 (CCRF-CEM): > 100 µM (inactive)
- GI50 (SF-268): > 100 µM (inactive)
- GI50 (OVCAR-5): > 100 µM (inactive)
- GI50 (NCI-H23): > 100 µM (inactive)
- GI50 (KM-20L2): > 100 µM (inactive)
- GI50 (SK-MEL-2): > 100 µM (inactive)
- GI50 (SNB-19): > 100 µM (inactive)
- GI50 (RXF 393): > 100 µM (inactive)
- GI50 (U-251): > 100 µM (inactive)
- GI50 (IGROV-1): > 100 µM (inactive)
- GI50 (NCI-H522): > 100 µM (inactive)
- GI50 (KM12): > 100 µM (inactive)
- GI50 (SN12C): > 100 µM (inactive)
- GI50 (HCC 2998): > 100 µM (inactive)
- GI50 (SK-MEL-5): > 100 µM (inactive)
- GI50 (786-0): > 100 µM (inactive)
- GI50 (SW-620): > 100 µM (inactive)
